Read-outs that look alike come from different tables or passages of the source.
What was measured:
HBsAg = settings: cited from earlier work
HBV DNA [1] = settings: cited from earlier work
[2] = read-out: CC50 cytotoxicity; cited from earlier work
HBV e antigen (HBeAg) = experiment: Cryopreserved PHH assay, ELISA of hepatitis B e antigen in culture supernatant; format: cell-based, type D HBV in human primary hepatocytes (PHH); settings: Hepatitis B virus, 240 h, read-out: HBeAg EC50
Procedure: (§1) The inhibitory effect of the compounds on HBV was evaluated by real-time quantitative qPCR assay (real time-qPCR) to detect the HBV DNA content in human primary hepatocytes (PHH) culture supernatant, and ELISA to detect the hepatitis B surface antigen and e antigen content, the EC50 value of the compounds was used as an indicator; meanwhile, the cell viability was detected by CellTiter-Glo to evaluate the toxicity of the compounds to cells.
(§2) 3.1. On day 0, PHH (1.32×10^5 cells/well) was seeded into a 48-well plate and incubated overnight at 37° C., 5% CO2.
(§3) 3.2. On the first day, PHH was infected with type D HBV (concentrated from HepDE19 cell culture supernatant).
(§4) 3.3 On the second day, the test compound was diluted to 7 concentrations with 5-fold serial dilution. Reference compound Peg-IFN-α 2a, 7 concentrations with 3-fold serial dilution. Compounds with different concentrations were added to the culture wells, and the wells were double-duplicated wells. The final concentration of DMSO in the culture medium was 2%.
(§5) 3.4 On the 4th, 6th, and 8th day, the culture medium was replaced by a fresh culture medium containing the compound.
(§6) 3.5 After collecting the culture supernatant from the culture well on the 10th day, the cell viability was tested with CellTiter-Glo. A portion of the culture supernatant was collected for ELISA determination to detect the content of hepatitis B virus surface antigen and e antigen; a portion of the sample was collected for extract DNA using a high-throughput DNA purification kit, referring to the product instructions for the specific steps.
(§7) 3.7 ELISA determination of hepatitis B virus surface antigen and e antigen
(§8) The specific steps can be referred to the product manual, the steps are briefly described as follows: 50 μL of sample and standard was added to the reaction plate respectively, 50 μL of enzyme conjugate was added to each well, the mixture was shaken and mixed well, then kept in a warm bath at 37° C. for 60 minutes, the plate was washed with washing solution for 5 times, 50 μL of the luminescent substrate was added to each well, the mixture was mixed well, and the reaction was carried out in the dark at room temperature for 10 minutes, and finally the chemiluminescence intensity was detected with the instrument.
(§9) Calculation of the inhibition percentage of HBV DNA, HBV surface antigen and e antigen. % Inh.=(1−value of the sample/value of DMSO control)×100.

HBV DNA [3] = experiment: Cryopreserved PHH assay, real-time qPCR of HBV DNA in culture supernatant; format: cell-based, type D HBV in human primary hepatocytes (PHH); settings: Hepatitis B virus, 240 h; PHH infected with type D HBV, supernatant day 10, qPCR
Procedure: as §1, §2, §3, §4, §5, §6
3.6 Quantitative PCR to detect the content of HBV DNA
The qPCR reaction mixture, sample and standard were added to the 384 well reaction plate. PCR reactions: 95° C., 10 min; 95° C., 15 sec, 60° C., 1 min, 40 cycles.
as §9

[4] = Cryopreserved PHH assay, cell viability by CellTiter-Glo; format: cell-based; settings: human, cryopreserved primary human hepatocytes (PHH), day 10, CellTiter-Glo
Procedure: as §1, §2, §4, §5, §6
Calculation of the percentage of cell viability: % viability=the luminescence value of the sample/the luminescence value of the DMSO control×100.

[5] = system: HBV surface antigen (HBsAg); experiment: Cryopreserved PHH assay, ELISA of hepatitis B surface antigen in culture supernatant; format: cell-based, type D HBV in human primary hepatocytes (PHH); settings: Hepatitis B virus, 240 h, read-out: HBsAg EC50
Procedure: as §1, §2, §3, §4, §5, §6, §7, §8, §9

In the case of `Clc1cc2nc(N3CCN(c4ccccn4)CC3)[nH]c2cc1Cl` [BM601], the EC50 (HBsAg) is given as 1500 nM, the EC50 (HBV DNA [1]) is given as 600 nM and the CC50 [2] is given as 24500 nM.

For `CC1(C)N=C(c2cc(-c3ccc(C(=O)O)cc3)c[nH]2)Nc2c(Cl)cccc21` [Compound I-51, 4-(5-(8-chloro-4,4-dimethyl-1,4-dihydroquinazolin-2-yl)-1H-pyrrol-3-yl)benzoic acid], the EC50 (HBV e antigen (HBeAg)) was 10 nM, the EC50 (HBV DNA [3]) was 9.7 nM and the CC50 at 8 days [4] was greater than 50000 nM. For the same compound, the EC50 [5] was greater than 50000 nM.

`CC1(C)N=C(c2nc(-c3ccc(C(=O)O)cc3)co2)Nc2c(Cl)cccc21` [Compound I-53, 4-(2-(8-chloro-4,4-dimethyl-1,4-dihydroquinazolin-2-yl)oxazol-4-yl)benzoic acid] gave an EC50 (HBV e antigen (HBeAg)) of 5.6 nM, an EC50 (HBV DNA [3]) of 8.4 nM and a CC50 at 8 days [4] greater than 50000 nM. For the same compound, the EC50 [5] was 115 nM.

With `CC1(C)N=C(c2nc(-c3ccc(C(=O)O)cc3)c[nH]2)Nc2ccccc21` [Compound I-54, 4-(2-(4,4-dimethyl-1,4-dihydroquinazolin-2-yl)-1H-imidazol-4-yl)benzoic acid] the EC50 (HBV e antigen (HBeAg)) was 41 nM, the EC50 (HBV DNA [3]) was 25 nM and the CC50 at 8 days [4] was greater than 50000 nM. For the same compound, the EC50 [5] was 326 nM.

For `CC1(C)N=C(c2nc(-c3ccc(C(=O)O)cc3)cs2)Nc2c(OC(F)(F)F)cccc21` [Compound I-65, 4-(2-(4,4-dimethyl-8-trifluoromethoxyl-1,4-dihydroquinazolin-2-yl)thiazol-4-yl)benzoic acid], the EC50 (HBV e antigen (HBeAg)) was 3.3 nM, the EC50 (HBV DNA [3]) was 3 nM and the CC50 at 8 days [4] was greater than 50000 nM. It also gave an EC50 [5] of 39.5 nM.

`CC1(C)N=C(c2nc(-c3ccc(C(=O)NS(C)(=O)=O)cc3)cs2)Nc2ccccc21` [Compound I-66] showed an EC50 (HBV e antigen (HBeAg)) of 31.7 nM, an EC50 (HBV DNA [3]) of 30.4 nM and a CC50 at 8 days [4] greater than 50000 nM. For the same compound, the EC50 [5] was 369 nM.

Compound `CC1(C)OC(c2nc(-c3ccc(C(=O)O)cc3)cs2)=Nc2ccccc21` [Compound I-67, 4-(2-(4,4-dimethyl-4H-benzo[d] [1,3]oxazin-2-yl)thiazol-4-yl)benzoic acid] has an EC50 (HBV e antigen (HBeAg)) of 4.2 nM, an EC50 (HBV DNA [3]) of 17.9 nM and a CC50 at 8 days [4] greater than 50000 nM. It also gave an EC50 [5] of 147 nM.

Compound `CC1(C)N=C(c2nc(-c3ccc(C(=O)O)cc3)cs2)Oc2ccccc21` [Compound I-68, 4-(2-(4,4-dimethyl-4H-benzo[e] [1,3]oxazin-2-yl)thiazol-4-yl)benzoic acid] has an EC50 (HBV e antigen (HBeAg)) of 17 nM, an EC50 (HBV DNA [3]) of 81.1 nM and a CC50 at 8 days [4] greater than 50000 nM. For the same compound, the EC50 [5] was 582 nM.

`CCC1(CC)N=C(c2nc(-c3ccc(C(=O)O)cc3)cs2)Nc2ccccc21` [Compound I-69, 4-(2-(4,4-diethyl-1,4-dihydroquinazolin-2-yl)thiazol-4-yl)benzoic acid] showed an EC50 (HBV e antigen (HBeAg)) of 11.3 nM, an EC50 (HBV DNA [3]) of 17.1 nM and a CC50 at 8 days [4] greater than 50000 nM. It also gave an EC50 [5] of 56.3 nM.

For `CC1(C)N=C(c2nc(-c3ccc(C(=O)O)cc3)cs2)Nc2c(F)cc(F)cc21` [Compound I-70, 4-(2-(6,8-difluoro-4,4-dimethyl-1,4-dihydroquinazolin-2-yl)thiazol-4-yl)benzoic acid], the EC50 (HBV e antigen (HBeAg)) was 5.2 nM, the EC50 (HBV DNA [3]) was 7.12 nM and the CC50 at 8 days [4] was greater than 50000 nM. It also gave an EC50 [5] of 40.7 nM.

`CC1(C)N=C(c2nc(-c3ccc(C(N)=O)cc3)cs2)Nc2ccccc21` [Compound I-71, 4-(2-(4,4-dimethyl-1,4-dihydroquinazolin-2-yl)thiazol-4-yl)benzamide] gave an EC50 (HBV e antigen (HBeAg)) of 14.7 nM, an EC50 (HBV DNA [3]) of 31.6 nM and a CC50 at 8 days [4] greater than 50000 nM. For the same compound, the EC50 [5] was 92.4 nM.

`CC1(C)N=C(c2nc(-c3ccc(-c4nnn[nH]4)cc3)cs2)Nc2ccccc21` [Compound I-72] showed an EC50 (HBV e antigen (HBeAg)) of 8050 nM, an EC50 (HBV DNA [3]) of 8090 nM and a CC50 at 8 days [4] greater than 50000 nM. For the same compound, the EC50 [5] was 17500 nM.

For `CCOC(=O)c1ccc(-c2csc(C3=NC(C)(C)c4ccccc4N3)n2)cc1` [Compound I-73], the EC50 (HBV e antigen (HBeAg)) was 12 nM, the EC50 (HBV DNA [3]) was 13.4 nM and the CC50 at 8 days [4] was greater than 50000 nM. For the same compound, the EC50 [5] was 115 nM.

From US11661420B2 (NANJING HEPO PHARMACEUTICAL CO., LTD, priority 2019, dated 2023)
